Here are results for 9 compounds from US20040092521A1, “Bicyclic-substituted amines as histamine-3 receptor ligands” (priority 2002, published 2004).

Counter-ions that a name gives are not always drawn.

The melting point is the temperature, or range, at which the solid turns liquid. In the case of `C[C@@H]1CCCN1CCc1ccc2cc(Br)ccc2c1` (as salt: HCl) [Example 2, (2R)-1-[2-(6-bromo-2-naphthyl)ethyl]-2-methylpyrrolidine], the melting point was in the range of 247.3 to 250.7 °C. Next, `C[C@@H]1CCCN1Cc1ccc2cc(-c3ccc(C#N)cc3)ccc2c1` (as salt: hydrochloride) [Example 6, 4-(6-{[(2R)-2-methyl-1-pyrrolidinyl]methyl}-2-naphthyl)benzonitrile]: 212.6 to 213.6 °C; `C[C@@H]1CCCN1CCc1ccc2cc(-c3ccc(F)cc3)ccc2n1` (as salt: hydrochloride) [Example 43, 6-(4-fluorophenyl)-2-{2-[(2R)-2-methyl-1-pyrrolidinyl]ethyl}quinoline]: 145 °C. `COc1ccc(-c2ccc3nc(CCN4CCC[C@H]4C)ccc3c2)cc1` (as salt: hydrochloride) [Example 46, 6-(4-methoxyphenyl)-2-{2-[(2R)-2-methyl-1-pyrrolidinyl]ethyl}quinoline]: the melting point was 165 °C (dec.).

As for `C[C@@H]1CCCN1CCc1ccc2cc(-c3ccc(C(F)(F)F)cc3)ccc2n1` (as salt: hydrochloride) [Example 47, 2-{2-[(2R)-2-methyl-1-pyrrolidinyl]ethyl}-6-[4-(trifluoromethyl)phenyl]quinoline], the melting point was 143 to 145 °C (dec.). Next, `C[C@@H]1CCCN1CCc1ccc2cc(C(=O)c3cccc(F)c3)ccc2n1` (as salt: hydrochloride) [Example 50, (3-fluorophenyl)(2-{2-[(2R)-2-methyl-1-pyrrolidinyl]ethyl}-6-quinolinyl)methanone]: 162 to 164 °C (dec.); `C[C@@H]1CCCN1CCc1ccc2cc(-c3cccnc3)ccc2n1` (as salt: hydrochloride) [Example 51, 2-{2-[(2R)-2-methyl-1-pyrrolidinyl]ethyl}-6-(3-pyridinyl)quinoline]: 205 to 207 °C. Next, `C[C@@H]1CCCN1CCc1ccc2cc(-c3ccc(C#N)cc3)ccc2n1` (as salt: tartrate) [Example 42, 4-(2-{2-[(2R)-2-methyl-1-pyrrolidinyl]ethyl}-6-quinolinyl)benzonitrile]: 164 °C; `C[C@@H]1CCCN1CCc1ccc2cc(-c3cccc(C#N)c3)ccc2c1` [Example 7, 3-(6-{2-[(2R)-2-methyl-1-pyrrolidinyl]ethyl}-2-naphthyl)benzonitrile]: 228.5 to 231.6 °C.
